Reference: article PMC4109680, “Identification and Preclinical Pharmacology of the γ-Secretase Modulator BMS-869780” (International Journal of Alzheimer's Disease, 2014)

Tested on: Aβ1-40 (MEF PS1wt)
Assay: Aβ1-40 ELISA in MEF dKO cultures cotransfected with APP-CTF and human presenilin-1 wild type
Type: cell-based
Conditions: wild type human presenilin-1
Description: H4-APPsw cell cultures were maintained on Dulbecco's modified Eagle's medium (DMEM) supplemented with L-glutamine (2 mM), fetal bovine serum (10%), and G418 (100 μg/mL). […] Aβ1-42 and Aβ1-40 assays, and Notch inhibition assays, were carried out as described previously. Mouse embryonic fibroblasts deficient in PS1 and PS2 (MEF dKO) were passaged twice per week in DMEM/F-12 medium, consisting of a 1 : 1 mixture of DMEM and F-12 nutrient mixture supplemented with 10% fetal bovine serum, penicillin, and streptomycin. For expression of human presenilin-1 in MEF dKO cells, the full length human presenilin-1 cDNA open reading frame was cloned between the BamHI and XhoI sites of the vector pcDNA5/FRT (Invitrogen), placing presenilin-1 expression under the control of the CMV promoter. […]
IC50 determinations for Aβ1-42 and Aβ1-40 in H4-APPsw cultures in 384-well format were determined using homogeneous time-resolved fluorescence immunoassays as previously described. […] In other experiments using H4-APPsw cultures, Aβ was quantified by ELISA; for Aβ1-42 the combination of monoclonal antibodies was 26D6 and 565-HRP; for Aβ1-40 it was TSD and 26D6-HRP, and for Aβ1-x it was 4G8 and 26D6-HRP. […] For Aβ in transiently transfected PS1/PS2 dKO fibroblasts, Aβ1-42 was quantified using an ELISA kit (WACO), and Aβ1-40 was quantified by ELISA as described above for H4-APPsw cultures. […]

COc1cc(Nc2nc3n(n2)CCCC[C@H]3c2ccc(F)cc2)ccc1-n1cnc(Cl)c1 [BMS-869780]
IC50: 11 nM
